# Laboratory results taken from ChEMBL document CHEMBL1201862, “PubChem BioAssay data set” (2004).
# Active and inactive are the calls of the source.
# Columns and labels:
# Prothrombin = Prothrombin (Homo sapiens, UniProt P00734); assay: Thrombin 1536 HTS Dose Response Confirmation. [Related pubchem assays: 1046 (Thrombin 1536 HTS; hits were confirmed in this assay)]; format: functional
# INS1 = assay: beta cell apoptosis inhibitors, cytokine rescue, dose response, luminescence, retest (AID 449756); format: functional, cell-based; conditions: Rattus norvegicus;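 note: cell death triggered by IL-1 beta plus TNF-alpha plus IFN-gamma mixture; protective hits raise ATP signal compared with cytokine alone wells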
# [1] = growth suppression of PTEN-null colon cells, dose response, cell-based, HCT116 PTEN knockout (AID 1047); format: functional;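 note: HCT116 colon tumor cells with PTEN knocked out; cells exposed to compound for 60 hours before readout; potency for loss of cell viability measured by luminescence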
# [2] = Luminescence Cell-Based Dose Retest to Confirm Inhibitors of Cancer Stem Cells. [Related pubchem assays (depositor defined):AID2717, AID2721]; format: functional; conditions: Homo sapiens
# [3] = growth suppression of beta-catenin-knockout colon cells, dose response, cell-based, HCT116, human colon tumor (AID 1045); format: functional;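 note: HCT116 colon tumor cells with beta catenin knocked out; cells exposed to compound for 60 hours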
# Protein RecA = target: T1, Protein RecA (Mycobacterium tuberculosis, UniProt P9WHJ3); assay: Fluorescence Cell-Free Homogeneous Dose Retest to Identify Inhibitors of RecA-Intein Splicing Activity. [Related pubchem assays (depositor defined):AID2097, AID2223, AID489010, AID492950]; format: functional
# T1 sequence (P9WHJ3 whole entry): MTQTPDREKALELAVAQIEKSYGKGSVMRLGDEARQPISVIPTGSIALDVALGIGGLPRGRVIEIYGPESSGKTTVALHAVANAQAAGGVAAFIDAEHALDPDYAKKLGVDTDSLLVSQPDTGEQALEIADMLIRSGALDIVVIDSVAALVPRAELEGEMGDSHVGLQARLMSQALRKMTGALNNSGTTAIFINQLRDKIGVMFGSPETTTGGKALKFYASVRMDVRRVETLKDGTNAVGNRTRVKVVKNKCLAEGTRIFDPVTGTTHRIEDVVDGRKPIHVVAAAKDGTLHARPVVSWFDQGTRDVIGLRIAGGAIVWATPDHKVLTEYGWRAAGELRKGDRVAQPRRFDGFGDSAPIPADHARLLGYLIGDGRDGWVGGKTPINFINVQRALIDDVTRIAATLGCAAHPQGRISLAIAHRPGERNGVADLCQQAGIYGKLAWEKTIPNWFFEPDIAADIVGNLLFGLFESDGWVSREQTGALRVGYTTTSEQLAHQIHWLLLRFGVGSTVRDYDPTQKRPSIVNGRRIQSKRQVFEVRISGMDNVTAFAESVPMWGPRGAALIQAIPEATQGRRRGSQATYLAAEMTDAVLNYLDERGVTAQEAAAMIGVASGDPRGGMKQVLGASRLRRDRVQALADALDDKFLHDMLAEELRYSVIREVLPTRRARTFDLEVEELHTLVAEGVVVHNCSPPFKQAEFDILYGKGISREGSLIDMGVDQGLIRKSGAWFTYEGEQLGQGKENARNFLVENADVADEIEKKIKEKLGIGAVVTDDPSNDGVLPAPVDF
# cells [4] = assay: cells
# [5] = target: T2, Replicative DNA helicase DnaB (Mycobacterium tuberculosis, UniProt P9WMR3); assay: DnaB intein splicing inhibitors, dose response, biochemical, cell-free fluorescence (AID 449749); format: functional
# T2 sequence (P9WMR3 whole entry): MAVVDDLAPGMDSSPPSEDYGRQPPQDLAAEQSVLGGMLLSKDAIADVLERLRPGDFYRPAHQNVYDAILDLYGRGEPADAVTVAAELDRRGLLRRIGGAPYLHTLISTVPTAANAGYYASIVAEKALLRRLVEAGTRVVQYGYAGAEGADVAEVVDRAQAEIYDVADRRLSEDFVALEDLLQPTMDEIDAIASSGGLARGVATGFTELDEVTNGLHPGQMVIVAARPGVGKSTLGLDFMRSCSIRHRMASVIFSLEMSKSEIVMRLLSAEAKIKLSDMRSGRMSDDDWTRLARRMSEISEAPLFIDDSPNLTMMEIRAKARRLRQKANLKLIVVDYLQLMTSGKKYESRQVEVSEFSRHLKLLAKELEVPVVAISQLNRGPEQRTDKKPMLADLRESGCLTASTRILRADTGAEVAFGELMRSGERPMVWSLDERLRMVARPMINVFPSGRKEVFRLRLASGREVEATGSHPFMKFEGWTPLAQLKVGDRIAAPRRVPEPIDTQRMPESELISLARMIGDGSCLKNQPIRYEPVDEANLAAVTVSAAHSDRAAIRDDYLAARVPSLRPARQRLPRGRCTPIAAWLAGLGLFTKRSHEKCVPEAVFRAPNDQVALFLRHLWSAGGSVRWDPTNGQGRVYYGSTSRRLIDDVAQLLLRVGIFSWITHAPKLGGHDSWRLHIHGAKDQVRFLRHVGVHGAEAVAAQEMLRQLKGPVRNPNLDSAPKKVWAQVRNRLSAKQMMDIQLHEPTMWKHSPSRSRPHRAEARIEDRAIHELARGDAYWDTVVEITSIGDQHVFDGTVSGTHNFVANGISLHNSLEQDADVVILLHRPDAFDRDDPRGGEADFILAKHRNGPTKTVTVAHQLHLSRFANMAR
# [6] = HEp-2 cell cytotoxicity, dose response, cytotoxicity control for RSV inhibitor project, HTS (AID 2410); format: functional; conditions: human respiratory syncytial virus
# Caspase-6 = target: T3, Caspase-6 (Homo sapiens, UniProt P55212); assay: human caspase-6 inhibitors, dose response, biochemical, VEID-R110 fluorescence, cherry-pick (AID 720632)
# T3 sequence (P55212 whole entry): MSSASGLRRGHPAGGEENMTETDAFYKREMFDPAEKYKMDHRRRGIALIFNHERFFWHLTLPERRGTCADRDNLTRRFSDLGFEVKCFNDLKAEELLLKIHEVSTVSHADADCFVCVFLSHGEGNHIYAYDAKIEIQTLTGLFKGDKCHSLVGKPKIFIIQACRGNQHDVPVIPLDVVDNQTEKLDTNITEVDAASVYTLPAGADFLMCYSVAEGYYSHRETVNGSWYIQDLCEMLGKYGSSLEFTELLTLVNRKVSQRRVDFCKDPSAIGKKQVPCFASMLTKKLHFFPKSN
# [7] = target: T4, Histone-lysine N-methyltransferase NSD2 (Homo sapiens, UniProt O96028); format: biochemical
# T4 sequence (O96028 whole entry): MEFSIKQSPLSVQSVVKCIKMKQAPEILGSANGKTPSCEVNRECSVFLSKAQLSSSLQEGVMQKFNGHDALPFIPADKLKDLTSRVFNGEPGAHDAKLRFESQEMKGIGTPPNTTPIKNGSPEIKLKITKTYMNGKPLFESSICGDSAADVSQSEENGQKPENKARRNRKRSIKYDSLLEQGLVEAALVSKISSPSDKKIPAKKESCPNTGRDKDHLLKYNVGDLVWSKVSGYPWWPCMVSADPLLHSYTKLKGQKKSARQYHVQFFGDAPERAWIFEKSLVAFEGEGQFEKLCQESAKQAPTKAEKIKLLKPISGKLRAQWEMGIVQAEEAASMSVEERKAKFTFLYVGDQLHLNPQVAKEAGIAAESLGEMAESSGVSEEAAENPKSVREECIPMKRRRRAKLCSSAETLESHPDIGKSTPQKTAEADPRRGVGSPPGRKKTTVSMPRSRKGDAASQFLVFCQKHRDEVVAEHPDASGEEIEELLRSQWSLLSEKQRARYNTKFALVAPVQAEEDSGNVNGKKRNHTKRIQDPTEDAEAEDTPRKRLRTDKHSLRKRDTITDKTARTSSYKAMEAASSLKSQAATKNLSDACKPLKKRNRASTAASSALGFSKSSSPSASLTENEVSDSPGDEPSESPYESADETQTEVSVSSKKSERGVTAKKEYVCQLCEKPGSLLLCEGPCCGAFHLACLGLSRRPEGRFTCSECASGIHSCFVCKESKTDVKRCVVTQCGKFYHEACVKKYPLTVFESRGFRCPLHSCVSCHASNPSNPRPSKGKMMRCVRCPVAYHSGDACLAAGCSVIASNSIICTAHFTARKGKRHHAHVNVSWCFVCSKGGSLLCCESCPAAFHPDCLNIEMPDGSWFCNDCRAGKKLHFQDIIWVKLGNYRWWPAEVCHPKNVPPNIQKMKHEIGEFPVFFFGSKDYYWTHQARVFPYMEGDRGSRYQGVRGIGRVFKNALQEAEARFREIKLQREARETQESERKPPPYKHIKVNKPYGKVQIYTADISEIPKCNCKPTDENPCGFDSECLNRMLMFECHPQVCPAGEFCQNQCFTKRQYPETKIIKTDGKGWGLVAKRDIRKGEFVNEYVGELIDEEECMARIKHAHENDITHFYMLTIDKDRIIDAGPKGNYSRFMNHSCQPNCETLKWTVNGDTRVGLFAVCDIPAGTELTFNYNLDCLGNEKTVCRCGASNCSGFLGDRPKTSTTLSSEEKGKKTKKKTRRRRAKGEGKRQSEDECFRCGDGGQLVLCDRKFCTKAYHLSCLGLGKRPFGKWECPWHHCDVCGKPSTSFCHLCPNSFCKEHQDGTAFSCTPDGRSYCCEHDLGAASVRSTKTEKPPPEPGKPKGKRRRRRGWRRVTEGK
# [8] = target: FAD-linked sulfhydryl oxidase ALR (Homo sapiens, UniProt P55789); assay: inhibitors of human ALR sulfhydryl oxidase, dose response, biochemical, H2O2 detection, luminescence, cherry-pick (AID 493248)
# Sequence of FAD-linked sulfhydryl oxidase ALR (P55789 whole entry): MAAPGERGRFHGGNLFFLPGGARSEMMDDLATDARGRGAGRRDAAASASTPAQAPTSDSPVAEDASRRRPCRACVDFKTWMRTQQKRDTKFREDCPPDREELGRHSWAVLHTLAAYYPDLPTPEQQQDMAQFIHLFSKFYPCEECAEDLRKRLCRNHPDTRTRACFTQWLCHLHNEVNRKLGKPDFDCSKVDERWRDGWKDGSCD
# [9] = cytotoxicity toward NIH3T3 fibroblasts, dose response, counter-screen, cell-based, ATP luminescence, mouse fibroblasts (AID 2010); format: functional;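 note: cells exposed to compound for about 90 hours before reading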
# [10] = inhibitors of intracellular T. cruzi replication, confirmation, NIH3T3 host cells, beta-gal luminescence (AID 2044); format: functional, cell-based;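 note: intracellular parasites grown in NIH/3T3 mouse fibroblasts as host cells; luminescent beta-galactosidase reporter signal from transgenic T. cruzi replicating inside host cells; inhibitors lower the luminescence signal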
# cells [11] = assay: cells; remark: listed apart in the source
# Estrogen receptor beta = Estrogen receptor beta (Homo sapiens, UniProt Q92731);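 note: recombinant ER-beta bound to coactivator SRC1 peptide in presence of estradiol agonist; inhibitors block coactivator peptide binding and lower the FRET signal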
# Sequence of Estrogen receptor beta (Q92731 whole entry): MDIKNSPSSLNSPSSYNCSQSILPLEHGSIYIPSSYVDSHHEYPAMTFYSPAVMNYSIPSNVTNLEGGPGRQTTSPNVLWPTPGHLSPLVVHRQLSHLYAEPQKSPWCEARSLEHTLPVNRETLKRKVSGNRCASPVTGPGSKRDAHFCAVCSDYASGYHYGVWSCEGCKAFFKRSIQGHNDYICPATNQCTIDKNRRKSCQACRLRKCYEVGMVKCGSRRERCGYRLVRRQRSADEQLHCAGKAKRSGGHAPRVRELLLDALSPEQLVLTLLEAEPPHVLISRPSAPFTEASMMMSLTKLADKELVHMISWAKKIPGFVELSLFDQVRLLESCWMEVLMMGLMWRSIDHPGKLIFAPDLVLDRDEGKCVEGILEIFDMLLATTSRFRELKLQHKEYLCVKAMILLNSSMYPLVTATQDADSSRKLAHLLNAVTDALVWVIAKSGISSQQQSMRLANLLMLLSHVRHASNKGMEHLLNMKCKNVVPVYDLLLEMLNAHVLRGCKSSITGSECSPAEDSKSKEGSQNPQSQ
# [12] = target: T5, Heat shock factor protein 1 (Mus musculus, UniProt P38532); assay: inhibition of MG132-induced HSE-luciferase signal, confirmation, cell-based, NIH3T3, luminescence, dose retest (AID 2382); format: functional;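 note: NIH3T3 fibroblasts with HSF1-driven luciferase reporter stressed by proteasome inhibitor MG132; luminescence from HSF1-driven luciferase expression after 8 hours of MG132 stress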
# T5 sequence (P38532 whole entry): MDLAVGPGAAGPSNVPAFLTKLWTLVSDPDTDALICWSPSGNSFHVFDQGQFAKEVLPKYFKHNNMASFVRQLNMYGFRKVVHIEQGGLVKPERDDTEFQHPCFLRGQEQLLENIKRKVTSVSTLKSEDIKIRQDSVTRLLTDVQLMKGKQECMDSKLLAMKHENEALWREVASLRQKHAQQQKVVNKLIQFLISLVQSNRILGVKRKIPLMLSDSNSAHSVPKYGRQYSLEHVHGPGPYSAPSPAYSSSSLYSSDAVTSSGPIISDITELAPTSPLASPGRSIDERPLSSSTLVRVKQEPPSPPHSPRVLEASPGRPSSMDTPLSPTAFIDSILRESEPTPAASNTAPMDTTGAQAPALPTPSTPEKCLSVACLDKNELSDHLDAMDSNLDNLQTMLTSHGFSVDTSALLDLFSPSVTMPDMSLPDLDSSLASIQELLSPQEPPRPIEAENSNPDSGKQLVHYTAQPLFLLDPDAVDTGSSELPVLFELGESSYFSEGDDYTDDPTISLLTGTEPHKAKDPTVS
# [13] = THP-1 cell cytotoxicity, dose response, cytotoxicity control for Vif-APOBEC3G degradation inhibitor project, THP-1 cells (AID 1117359); format: functional; conditions: Human immunodeficiency virus 1, THP-1
# [14] = target: T5, Heat shock factor protein 1; assay: HSF1 potentiators in luciferase reporter cells, confirmation, cell-based, NIH3T3, luminescence, dose retest (AID 435004); format: functional;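 note: stress induced by proteasome inhibitor MG132 added 30 min after compound; luciferase reporter driven by HSF1 response element in NIH3T3 cells; actives raise luminescence as potentiators of the MG132 stress response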
# [15] = NIH:OVCAR-3 ovarian cancer cell cytotoxicity, dose response, PAX8 inhibitor project, plate reader, dry powder samples (AID 743044); format: functional, cell-based
# Paired box protein Pax-8 = Paired box protein Pax-8 (Homo sapiens, UniProt Q06710); assay: inhibitors of PAX8-driven TPO luciferase reporter, dose response, RMG-I cells, cherry-pick (AID 687027); format: functional, cell-based;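 note: luciferase reporter driven by Pax8 target thyroperoxidase promoter measured by SteadyGlo luminescence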
# Sequence of Paired box protein Pax-8 (Q06710 whole entry): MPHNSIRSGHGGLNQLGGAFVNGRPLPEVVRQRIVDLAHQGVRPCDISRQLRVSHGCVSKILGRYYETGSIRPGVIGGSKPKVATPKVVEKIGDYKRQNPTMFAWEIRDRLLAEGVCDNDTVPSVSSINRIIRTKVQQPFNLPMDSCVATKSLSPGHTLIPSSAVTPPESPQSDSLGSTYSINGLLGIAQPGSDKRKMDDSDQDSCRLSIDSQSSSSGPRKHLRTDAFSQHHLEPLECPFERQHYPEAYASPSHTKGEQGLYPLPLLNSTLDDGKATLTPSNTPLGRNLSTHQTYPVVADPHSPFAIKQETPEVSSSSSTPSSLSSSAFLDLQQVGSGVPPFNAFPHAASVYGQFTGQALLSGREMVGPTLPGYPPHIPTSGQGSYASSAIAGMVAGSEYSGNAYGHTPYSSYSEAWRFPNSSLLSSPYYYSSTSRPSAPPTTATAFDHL
smiles,measurement,setting,value
CC(C)NC(=O)CSc1nc(-c2ccccc2)cs1,IC50,Prothrombin,> 50 µM (not active)
O=C(NCc1cccnc1)/C(=C/c1ccc(-c2cccc(Cl)c2)o1)S(=O)(=O)c1ccccc1,AC50,INS1,6.06 µM (active)
same,EC50,[1],2.02 µM (active)
same,AC50,[2],1.73 µM (active)
same,EC50,[3],2.02 µM (active)
O=C(/C=C/c1ccc(Cl)cc1)c1cccnc1,EC50,[1],1.75 µM (active)
same,EC50,[3],0.793 µM (active)
CNC(=O)/C(C#N)=C/c1c(N(Cc2ccccc2)Cc2ccccc2)nc2c(C)cccn2c1=O,EC50,Protein RecA,104 µM (active)
same,IC50,cells [4],11.3 µM (active)
same,AC50,[5],> 120 µM (inactive)
same,CC50,[6],10.1 µM (active)
Cc1nc2c(=O)[nH]c(=S)[nH]c2nc1O,AC50,Caspase-6,6.58 µM (active)
same,AC50,[7],16.2 µM (active)
CCc1ccc2cccc3c2c1N=CN3C,AC50,Caspase-6,6.79 µM (active)
same,AC50,[7],7.21 µM (active)
same,AC50,[8],0.24 µM (active)
CCc1ccc(NC2CC(=O)N(c3ccc(OC)cc3OC)C2=O)cc1 (centres undefined),IC50,Prothrombin,> 50 µM (not active)
C=C(C)C1CC=C(CN2CCN(Cc3ccccc3)CC2)CC1 (centres undefined),EC50,[9],> 60 µM (not active)
same,EC50,[10],< 0.1 µM (active)
same,EC50,cells [11],0.189 µM (active)
Cn1nc(CC(=O)Nc2ncc(Br)s2)c2ccccc2c1=O,IC50,Estrogen receptor beta,> 50 µM (not active)
CCOc1ccccc1NC(=O)Cn1c(-c2ccc(Cl)cc2)noc1=O,EC50,[12],> 195 µM (not active)
same,CC50,[13],> 40 µM (active)
COc1ccccc1N=C(S)N(Cc1ccco1)Cc1cc2cc(C)ccc2nc1O,IC50,Prothrombin,> 50 µM (not active)
Cc1ccc(N(CCCCN2C(=O)c3ccccc3C2=O)C(=O)c2cccc([N+](=O)[O-])c2)cc1,IC50,cells [4],15.8 µM (active)
same,EC50,[14],33.2 µM (active)
same,CC50,[6],> 50 µM (active)
C[C@@H]1CN([C@H](C)CO)C(=O)c2cc(NS(=O)(=O)c3cccs3)ccc2O[C@@H](C)CCCCO[C@H]1CN(C)Cc1ccc(Cl)c(Cl)c1,AC50,[15],46.5 µM (active)
same,AC50,Paired box protein Pax-8,9.2 µM (active)
